The conditions of data set [1]: cited from earlier work.
The conditions of data set [2]: for Cream time / % Elongation / Density / Permeability / Resiliency / Tensile: catalyst 0.23 pphp. How it is done:
In addition to the above Examples carried out in the screening polyurethane formulation, actual flexible polyurethane foam specimens were prepared and tested for their performance characteristics.
The flexible polyurethane foam formulation is in Table 4.
Testing results of the prepared foams are in Table 5.

Data set [3] can be described thus: Catalytic Activity Test (Dielectric Polarization Analyzer SubCASE HT). The protocol:
Comparative catalytic activity of selected tin-containing catalysts was determined with the use of Dielectric Polarization Analyzer SubCASE HT (Format Messtechnik GmbH) that converts the dielectric conductivity signal to Pot Life and Cure Time (among others) of curing polymer systems. Pot Life was determined by the instrument as time between the mixing the reactants and beginning of the polymerization process at 10% reduction in dielectrical properties from the initial point. Cure Time is calculated as the time between the maximum cure rate point and the point at which the maximum rate is slowed down by 25%. The polyurethane test formulation used for screening catalytic activity of the selected tin-containing catalysts with the use of SubCASE HT is shown in Table 1.
The selected catalysts were tested at loadings of the same tin content. The following catalysts were tested for comparative catalytic activity: stannous di-2-ethylhexanoate, stannous dineodecanoate, stannous diricinoleate, dimethyltin dioleate and dimethyltin dineodecanoate. A catalyst was added to the polyol and mixed at 400 rpm until thoroughly dispersed. IPDI was then added to the polyol/catalyst mixture and mixed for 20 seconds at 400 rpm before introducing the mixture into the SubCASE HT instrument and starting the kinetics measurements. The instrument temperature was set to 30° C. Results of the comparative catalytic activity test for Pot Life and Cure Time of the selected tin-containing catalysts are in Table 2.

[4] abbreviates: reproductive toxicity / CMR status, current or as in Comments.
The mark [5] stands for this setting: same amount of tin (0.029 g), 30° C.

Several values for one entry are separate records, joined by “and”; a condition that tells them apart may be missing. Equal entries are not always repeated. Where two headings read alike, the source gives them in different places.

As to `CC(=O)[O-].CC(=O)[O-].[CH3][Sn+2][CH3]` [Dimethyltin diacetate], the values for the CMR classification result in data set [1] (current) and in data set [1] (setting [4]) were “reprotoxicants of category 2” and “Reprotox. of Cat. 2”, respectively.
As for Dibutyltin dilaurate, the CMR classification result in data set [1] (current) was “reprotoxicants of category 1B”; in data set [1] (setting [4]) it was “Reprotox. of Cat. 1B”. In data set [1] (mutagenicity), the “CMR Classification (mutagen)” value was “Mutagen of Cat. 2”.
On to Dimethyltin dineodecanoate, for which, in data set [2], the Cream time was 18 s. In data set [2] (foam), the elongation is on record as 107%; the “increase of elongation compared to Example Control 1 and Example Control 2” value is recorded as “about 31%”; the “% Elongation” value is given as 107%; the Density is 1.37 lbs/ft3. Further, in data set [2] (foam), the Permeability was determined as 0.3 scfm, the Resiliency came to 20% and the Tensile came out at 15 psi. Besides, in data set [3] (setting [5]), the “Cure Time” value came to 695 s, the “Cure Time-Pot Life” value was found to be 321 s and the “Pot Life” value is 374 s. In data set [3] (same tin amount), the “Cure Time” value stood at 695 s and the “Pot Life” value was determined as 374 s. In addition, the CMR classification entry in data set [1] (current) is on record as “reprotoxicants of category 2”. Besides, the “CMR classification” value in data set [1] (setting [4]) was “Reprotox. of Cat. 2”.
For the molecule Dimethyltin dioleate, in data set [3] (setting [5]), the “Cure Time” value came out at 1135 s. Moreover, the “Cure Time-Pot Life” value in data set [3] (setting [5]) came out at 533 s. For the same molecule, the “Pot Life” value in data set [3] (setting [5]) and in data set [3] (same tin amount) was 602 s in each case. Also, the CMR classification entry in data set [1] (current) is “reprotoxicants of category 2”; in data set [1] (setting [4]), “Reprotox. of Cat. 2”.
Turning to Dimethyltin diricinoleate, the Cream time in data set [2] is 17 s. For the same molecule, in data set [2] (foam), the “% Elongation” value came to 93%, the Density is listed as 1.39 lbs/ft3, the Permeability stood at 4.4 scfm and the Resiliency is 35%. Further, in data set [2] (foam), the Tensile is given as 14 psi. In data set [3] (setting [5]), the “Cure Time” value came to 928 s, the “Cure Time-Pot Life” value came to 457 s and the “Pot Life” value came to 471 s. In addition, in data set [3] (same tin amount), the “Cure Time” value is 928 s and the “Pot Life” value was 471 s. Also, the CMR classification result in data set [1] (current) was “reprotoxicants of category 2”. For the same molecule, the “CMR classification” value in data set [1] (setting [4]) is listed as “Reprotox. of Cat. 2”.
With Dioctyltin dilaurate, the CMR classification result in data set [1] (current) is given as “reprotoxicants of category 1B”; in data set [1] (setting [4]) it was “Reprotox. of Cat. 1B”.
In turn, Stannous di(2-ethylhexanoate) gave a Cream time in data set [2] of 17 s. For the same molecule, in data set [3] (setting [5]), the “Cure Time” value turned out to be 420 s, the “Cure Time-Pot Life” value worked out at 109 s and the “Pot Life” value stood at 311 s. The “Pot Life” value in data set [3] (same tin amount) turned out to be 311 s.
Take Stannous dineodecanoate: the Cream time in data set [2] was found to be 15 s. Also, in data set [2] (foam), the elongation was 97%, the “% Elongation” value is 97%, the Density is 1.32 lbs/ft3 and the Permeability stood at 0.6 scfm. In data set [2] (foam), this molecule had a Resiliency of 28% and a Tensile of 14 psi. Further, in data set [3] (setting [5]), the “Cure Time” value came out at 741 s, the “Cure Time-Pot Life” value was found to be 337 s and the “Pot Life” value was found to be 404 s. In addition, in data set [3] (same tin amount), the “Cure Time” value was 741 s; the “Pot Life” value is 404 s and 471 s. The CMR classification entry in data set [1] (current) is “non-CMR”. Further, the “CMR classification” value in data set [1] (setting [4]) is recorded as “Not CMR”.
For the molecule Stannous diricinoleate, in data set [3] (setting [5]), the “Cure Time” value came out at 895 s, the “Cure Time-Pot Life” value is 335 s and the “Pot Life” value was found to be 560 s. Moreover, in data set [3] (same tin amount), the “Cure Time” value was determined as 895 s and the “Pot Life” value is 560 s. Besides, in data set [1] (current), the CMR classification entry is recorded as “non-CMR”. For the same molecule, the “CMR classification” value in data set [1] (setting [4]) was “Not CMR”.

Values taken from US20260226222A1, “PROCESS FOR MANUFACTURING POLYURETHANE FOAM” (Galata Chemicals, LLC, priority 2023, published 2026).
